Literature values as cited in US20030180373A1, “Method for viral inactivation of hydro-alcoholic solutions” (priority 2000, published 2003).

Tested on: viruses of Norwalk and Norwalk type
Details: disinfectants conventionally used; ethanol at a concentration of 75%

Compound | Effect of the disinfectant on the virus
CCO [ethanol] | no effect
O=CCCCC=O [glutaraldehyde] | capable of destroying the virus
[Na+].[O-]Cl [bleach] | capable of destroying the virus
